US20090018134A1, “Compounds - 945” (AstraZeneca AB, priority 2007, published 2009)

What follows are compounds tested against T1, mTOR (Homo sapiens, UniProt P42345) (assay: In Vitro mTOR Kinase Assay (Echo), Test (a)(ii)). Conditions: table of enzyme assay Test (a)(ii); read-out: Test (a)(ii) IC50.
T1 construct: FLAG; made in house
Type: biochemical
Procedure, shortened: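 Inhibition of truncated mTOR (1362-2549, FLAG-tagged, purified from stably transfected HEK293 cells) is measured as reduced AlphaScreen signal from a phospho-T389-recognising antibody bound to the biotinylated peptide product. Kinase incubation lasts 2 hours at room temperature. Potency is given as IC50.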

T1 sequence (P42345 1362-2549): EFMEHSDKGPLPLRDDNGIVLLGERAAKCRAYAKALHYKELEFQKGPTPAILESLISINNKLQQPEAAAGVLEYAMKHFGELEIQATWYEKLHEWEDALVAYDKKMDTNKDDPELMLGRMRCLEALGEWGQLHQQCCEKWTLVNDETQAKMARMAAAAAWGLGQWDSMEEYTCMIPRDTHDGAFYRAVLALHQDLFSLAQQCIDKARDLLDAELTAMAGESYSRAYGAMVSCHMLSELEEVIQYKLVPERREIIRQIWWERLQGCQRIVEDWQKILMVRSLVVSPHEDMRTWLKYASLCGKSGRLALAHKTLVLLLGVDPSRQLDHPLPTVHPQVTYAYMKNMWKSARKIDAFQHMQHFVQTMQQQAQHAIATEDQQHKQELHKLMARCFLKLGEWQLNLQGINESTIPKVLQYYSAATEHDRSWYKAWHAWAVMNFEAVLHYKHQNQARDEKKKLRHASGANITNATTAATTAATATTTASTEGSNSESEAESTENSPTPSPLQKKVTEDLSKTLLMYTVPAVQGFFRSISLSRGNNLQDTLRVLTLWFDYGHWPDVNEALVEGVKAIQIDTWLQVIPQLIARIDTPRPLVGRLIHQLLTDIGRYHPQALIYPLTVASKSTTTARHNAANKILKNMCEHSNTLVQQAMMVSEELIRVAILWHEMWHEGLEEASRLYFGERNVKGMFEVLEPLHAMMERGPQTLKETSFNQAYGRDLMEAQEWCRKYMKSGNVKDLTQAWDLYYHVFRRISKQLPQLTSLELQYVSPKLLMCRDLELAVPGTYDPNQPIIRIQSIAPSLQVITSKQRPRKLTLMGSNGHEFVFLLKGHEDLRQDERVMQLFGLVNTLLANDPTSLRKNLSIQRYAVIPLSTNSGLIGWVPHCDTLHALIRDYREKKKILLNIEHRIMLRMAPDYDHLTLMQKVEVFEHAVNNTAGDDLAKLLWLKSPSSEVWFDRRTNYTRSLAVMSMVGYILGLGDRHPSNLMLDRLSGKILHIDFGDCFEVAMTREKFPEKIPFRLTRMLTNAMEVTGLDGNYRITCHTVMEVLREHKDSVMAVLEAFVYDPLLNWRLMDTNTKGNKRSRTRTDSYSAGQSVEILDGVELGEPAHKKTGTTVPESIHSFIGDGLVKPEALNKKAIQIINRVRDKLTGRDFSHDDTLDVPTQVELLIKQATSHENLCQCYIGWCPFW

Row | SMILES | IC50 [µM]
1 | O=C(NCCCO)Nc1ccc(-c2nc(N3CCOCC3)cc(C3(S(=O)(=O)C4CC4)CC3)n2)cc1 [Example 13h, 1-[4-[4-(1-cyclopropylsulfonylcyclopropyl)-6-morpholin-4-ylpyrimidin-2-yl]phenyl]-3-(3-hydroxypropyl)urea] | 0.0106
2 | Cn1cc(NC(=O)Nc2ccc(-c3nc(N4CCOCC4)cc(C4(S(=O)(=O)C5CC5)CC4)n3)cc2)cn1 [Example 13i, 1-[4-[4-(1-cyclopropylsulfonylcyclopropyl)-6-morpholin-4-ylpyrimidin-2-yl]phenyl]-3-(1-methylpyrazol-4-yl)urea] | 0.00275
3 | O=C(Nc1ccc(-c2nc(N3CCOCC3)cc(C3(S(=O)(=O)C4CC4)CCCC3)n2)cc1)NC1CC1 [Example 13j, 3-cyclopropyl-1-[4-[4-(1-cyclopropylsulfonylcyclopentyl)-6-morpholin-4-ylpyrimidin-2-yl]phenyl]urea] | 0.0178
4 | CNC(=O)Nc1ccc(-c2nc(N3CCOCC3)cc(C3(S(=O)(=O)C4CC4)CCCC3)n2)cc1 [Example 13k, 1-[4-[4-(1-cyclopropylsulfonylcyclopentyl)-6-morpholin-4-ylpyrimidin-2-yl]phenyl]-3-methylurea] | 0.0179
5 | O=C(NCCO)Nc1ccc(-c2nc(N3CCOCC3)cc(C3(S(=O)(=O)C4CC4)CCCC3)n2)cc1 [Example 13l, 1-[4-[4-(1-cyclopropylsulfonylcyclopentyl)-6-morpholin-4-ylpyrimidin-2-yl]phenyl]-3-(2-hydroxyethyl)urea] | 0.0108
6 | CC(C)(CO)NC(=O)Nc1ccc(-c2nc(N3CCOCC3)cc(C3(S(=O)(=O)C4CC4)CCCC3)n2)cc1 [Example 13m, 1-[4-[4-(1-cyclopropylsulfonylcyclopentyl)-6-morpholin-4-ylpyrimidin-2-yl]phenyl]-3-(1-hydroxy-2-methylpropan-2-yl)urea] | 0.0532
7 | CN(C)CCNC(=O)Nc1ccc(-c2nc(N3CCOCC3)cc(C3(S(=O)(=O)C4CC4)CCCC3)n2)cc1 [Example 13n, 1-[4-[4-(1-cyclopropylsulfonylcyclopentyl)-6-morpholin-4-ylpyrimidin-2-yl]phenyl]-3-(2-dimethylaminoethyl)urea] | 0.997
8 | O=C(NCCCO)Nc1ccc(-c2nc(N3CCOCC3)cc(C3(S(=O)(=O)C4CC4)CCCC3)n2)cc1 [Example 13o, 1-[4-[4-(1-cyclopropylsulfonylcyclopentyl)-6-morpholin-4-ylpyrimidin-2-yl]phenyl]-3-(3-hydroxypropyl)urea] | 0.0287
9 | O=C(Nc1ccc(-c2nc(N3CCOCC3)cc(C3(S(=O)(=O)C4CC4)CCC3)n2)cc1)NC1CC1 [Example 13p, 3-cyclopropyl-1-[4-[4-(1-cyclopropylsulfonylcyclobutyl)-6-morpholin-4-ylpyrimidin-2-yl]phenyl]urea] | 0.00202
10 | CNC(=O)Nc1ccc(-c2nc(N3CCOCC3)cc(C3(S(=O)(=O)C4CC4)CCC3)n2)cc1 [Example 13q, 1-[4-[4-(1-cyclopropylsulfonylcyclobutyl)-6-morpholin-4-ylpyrimidin-2-yl]phenyl]-3-methylurea] | 0.00192
11 | O=C(NCCO)Nc1ccc(-c2nc(N3CCOCC3)cc(C3(S(=O)(=O)C4CC4)CCC3)n2)cc1 [Example 13r, 1-[4-[4-(1-cyclopropylsulfonylcyclobutyl)-6-morpholin-4-ylpyrimidin-2-yl]phenyl]-3-(2-hydroxyethyl)urea] | 0.00198
12 | CC(C)(CO)NC(=O)Nc1ccc(-c2nc(N3CCOCC3)cc(C3(S(=O)(=O)C4CC4)CCC3)n2)cc1 [Example 13s, 1-[4-[4-(1-cyclopropylsulfonylcyclobutyl)-6-morpholin-4-ylpyrimidin-2-yl]phenyl]-3-(1-hydroxy-2-methylpropan-2-yl)urea] | 0.00846
13 | CN(C)CCNC(=O)Nc1ccc(-c2nc(N3CCOCC3)cc(C3(S(=O)(=O)C4CC4)CCC3)n2)cc1 [Example 13t, 1-[4-[4-(1-cyclopropylsulfonylcyclobutyl)-6-morpholin-4-ylpyrimidin-2-yl]phenyl]-3-(2-dimethylaminoethyl)urea] | 0.172
14 | O=C(NCCCO)Nc1ccc(-c2nc(N3CCOCC3)cc(C3(S(=O)(=O)C4CC4)CCC3)n2)cc1 [Example 13u, 1-[4-[4-(1-cyclopropylsulfonylcyclobutyl)-6-morpholin-4-ylpyrimidin-2-yl]phenyl]-3-(3-hydroxypropyl)urea] | 0.00477
15 | C[C@H]1COCCN1c1cc(C2(S(=O)(=O)C3CC3)CC2)nc(-c2ccc(NC(=O)NC3CC3)nc2)n1 [Example 14, 3-Cyclopropyl-1-[5-[4-(1-cyclopropylsulfonylcyclopropyl)-6-[(3S)-3-methylmorpholin-4-yl]pyrimidin-2-yl]pyridin-2-yl]urea] | 0.0465
16 | CNC(=O)Nc1ccc(-c2nc(N3CCOC[C@@H]3C)cc(C3(S(=O)(=O)C4CC4)CC3)n2)cn1 [Example 14a, 1-[5-[4-(1-cyclopropylsulfonylcyclopropyl)-6-[(3S)-3-methylmorpholin-4-yl]pyrimidin-2-yl]pyridin-2-yl]-3-methylurea] | 0.0136
17 | C[C@H]1COCCN1c1cc(C2(S(=O)(=O)c3ccc(NCCO)cc3)CC2)nc(-c2cnc(NC(=O)NCCO)nc2)n1 [Example 14aa, 3-(2-hydroxyethyl)-1-[5-[4-[1-[4-(2-hydroxyethylamino)phenyl]sulf-onylcyclopropyl]-6-[(3S)-3-methylmorpholin-4-yl]pyrimidin-2-yl]pyrimidin-2-yl]urea] | 0.0186
18 | C[C@H]1COCCN1c1cc(C2(S(=O)(=O)C3CC3)CC2)nc(-c2ccc(NC(=O)NCCN(C)C)nc2)n1 [Example 14b, 1-[5-[4-(1-cyclopropylsulfonylcyclopropyl)-6-[(3S)-3-methylmorpholin-4-yl]pyrimidin-2-yl]pyridin-2-yl]-3-(2-dimethylaminoethyl)urea] | 1.39
19 | C[C@H]1COCCN1c1cc(C2(S(=O)(=O)C3CC3)CC2)nc(-c2ccc(NC(=O)NCCO)nc2)n1 [Example 14c, 1-[5-[4-(1-cyclopropylsulfonylcyclopropyl)-6-[(3S)-3-methylmorpholin-4-yl]pyrimidin-2-yl]pyridin-2-yl]-3-(2-hydroxyethyl)urea] | 0.0401
20 | C[C@H]1COCCN1c1cc(C2(S(=O)(=O)C3CC3)CC2)nc(-c2ccc(NC(=O)Nc3cnn(C)c3)nc2)n1 [Example 14d, 1-[5-[4-(1-cyclopropylsulfonylcyclopropyl)-6-[(3S)-3-methylmorpholin-4-yl]pyrimidin-2-yl]pyridin-2-yl]-3-(1-methylpyrazol-4-yl)urea] | 0.0143
21 | C[C@H]1COCCN1c1cc(C2(S(=O)(=O)c3ccc(F)cc3)CC2)nc(-c2cnc(NC(=O)NC3CC3)nc2)n1 [Example 14e, 3-cyclopropyl-1-[5-[4-[1-(4-fluorophenyl)sulfonylcyclopro-pyl]-6-[(3S)-3-methylmorpholin-4-yl]pyrimidin-2-yl]pyrimidin-2-yl]urea] | 0.11
22 | CNC(=O)Nc1ncc(-c2nc(N3CCOC[C@@H]3C)cc(C3(S(=O)(=O)c4ccc(F)cc4)CC3)n2)cn1 [Example 14f, 1-[5-[4-[1-(4-fluorophenyl)sulfonylcyclopro-pyl]-6-[(3S)-3-methylmorpholin-4-yl]pyrimidin-2-yl]pyrimidin-2-yl]-3-methylurea] | 0.189
23 | C[C@H]1COCCN1c1cc(C2(S(=O)(=O)c3ccc(F)cc3)CC2)nc(-c2cnc(NC(=O)NCCO)nc2)n1 [Example 14g, 1-[5-[4-[1-(4-fluorophenyl)sulfonylcyclopro-pyl]-6-[(3S)-3-methylmorpholin-4-yl]pyrimidin-2-yl]pyrimidin-2-yl]-3-(2-hydroxyethyl)urea] | 0.0857
24 | C[C@H]1COCCN1c1cc(C2(S(=O)(=O)c3ccc(F)cc3)CC2)nc(-c2cnc(NC(=O)Nc3cnn(C)c3)nc2)n1 [Example 14h, 1-[5-[4-[1-(4-fluorophenyl)sulfonylcyclopro-pyl]-6-[(3S)-3-methylmorpholin-4-yl]pyrimidin-2-yl]pyrimidin-2-yl]-3-(1-methylpyrazol-4-yl)urea] | 0.14
25 | C[C@H]1COCCN1c1cc(C2(S(=O)(=O)c3ccc(F)cc3)CC2)nc(-c2ccc(NC(=O)NC3CC3)nc2)n1 [Example 14i, 3-cyclopropyl-1-[5-[4-[1-(4-fluorophenyl)sulfonylcyclopro-pyl]-6-[(3S)-3-methylmorpholin-4-yl]pyrimidin-2-yl]pyridin-2-yl]urea] | 0.0339
26 | CNC(=O)Nc1ccc(-c2nc(N3CCOC[C@@H]3C)cc(C3(S(=O)(=O)c4ccc(F)cc4)CC3)n2)cn1 [Example 14j, 1-[5-[4-[1-(4-fluorophenyl)sulfonylcyclopro-pyl]-6-[(3S)-3-methylmorpholin-4-yl]pyrimidin-2-yl]pyridin-2-yl]-3-methylurea] | 0.0129
27 | C[C@H]1COCCN1c1cc(C2(S(=O)(=O)c3ccc(F)cc3)CC2)nc(-c2ccc(NC(=O)NCCN(C)C)nc2)n1 [Example 14k, 3-(2-dimethylaminoethyl)-1-[5-[4-[1-(4-fluorophenyl)sulfonylcyclopro-pyl]-6-[(3S)-3-methylmorpholin-4-yl]pyrimidin-2-yl]pyridin-2-yl]urea] | 0.275
28 | C[C@H]1COCCN1c1cc(C2(S(=O)(=O)c3ccc(F)cc3)CC2)nc(-c2ccc(NC(=O)NCCO)nc2)n1 [Example 14l, 1-[5-[4-[1-(4-fluorophenyl)sulfonylcyclopro-pyl]-6-[(3S)-3-methylmorpholin-4-yl]pyrimidin-2-yl]pyridin-2-yl]-3-(2-hydroxyethyl)urea] | 0.0137
29 | C[C@H]1COCCN1c1cc(C2(S(=O)(=O)c3ccc(F)cc3)CC2)nc(-c2ccc(NC(=O)Nc3cnn(C)c3)nc2)n1 [Example 14m, 1-[5-[4-[1-(4-fluorophenyl)sulfonylcyclopro-pyl]-6-[(3S)-3-methylmorpholin-4-yl]pyrimidin-2-yl]pyridin-2-yl]-3-(1-methylpyrazol-4-yl)urea] | 0.0143
30 | C[C@H]1COCCN1c1cc(C2(S(C)(=O)=O)CCCC2)nc(-c2ccc(NC(=O)NC3CC3)nc2)n1 [Example 14n, 3-cyclopropyl-1-[5-[4-[(3S)-3-methylmorpholin-4-yl]-6-(1-methylsulfonylcyclopentyl)pyri-midin-2-yl]pyridin-2-yl]urea] | 0.0363
